Experimental data from patent US8754242B2, “Herbicides” (Syngenta Crop Protection LLC, priority 2007, dated 2014).

Experiments:
Assay type in all cases: in vivo
[1] = tested on: Alopecurus myosuroides (ALOMY); test: Test Example 1 pre-emergence herbicidal activity; conditions: Alopecurus myosuroides, 480 h, rate 250 g/ha, evaluated 20 days later, read-out: Pre-emergence activity ALOMY (100=total damage to plant; 0=no damage to plant)
Protocol: (§1) Monocotyledonous and dicotyledonous test plants were sown in standard soil in pots. After cultivation for one day (pre-emergence) or after 10 days cultivation (post-emergence) under controlled conditions in a glasshouse, the plants were sprayed with an aqueous spray solution derived from the formulation of the technical active ingredient in 0.6 ml acetone and 45 ml formulation solution containing 10.6% Emulsogen EL (Registry number 61791-12-6), 42.2% N-methylpyrrolidone, 42.2% dipropylene glycol monomethyl ether (Registry number 34590-94-8) and 0.2% X-77 (Registry number 11097-66-8). The test plants were then grown in a greenhouse under optimum conditions until, 15 days later for post-emergence and 20 days for pre-emergence, the test was evaluated (100=total damage to plant; 0=no damage to plant).
(§2) Alopecurus myosuroides (ALOMY), Avena fatua (AVEFA), Lolium perenne (LOLPE), Setaria faberi (SETFA), Digitaria sanguinalis (DIGSA), Echinochloa crus-galli (ECHCG)

Avena fatua (AVEFA) [2] = test: Test Example 1 pre-emergence herbicidal activity; conditions: Avena fatua, 480 h, rate 250 g/ha, evaluated 20 days later, read-out: Pre-emergence activity AVEFA (100=total damage to plant; 0=no damage to plant)
Protocol: as §1, §2

[3] = tested on: Digitaria sanguinalis (DIGSA); test: Test Example 1 pre-emergence herbicidal activity; conditions: Digitaria sanguinalis, 480 h, rate 250 g/ha, evaluated 20 days later, read-out: Pre-emergence activity DIGSA (100=total damage to plant; 0=no damage to plant)
Protocol: as §1, §2

[4] = tested on: Echinochloa crus-galli (ECHCG); test: Test Example 1 pre-emergence herbicidal activity; conditions: Echinochloa crus-galli, 480 h, rate 250 g/ha, evaluated 20 days later, read-out: Pre-emergence activity ECHCG (100=total damage to plant; 0=no damage to plant)
Protocol: as §1, §2

Lolium perenne (LOLPE) [5] = test: Test Example 1 pre-emergence herbicidal activity; conditions: Lolium perenne, 480 h, rate 250 g/ha, evaluated 20 days later, read-out: Pre-emergence activity LOLPE (100=total damage to plant; 0=no damage to plant)
Protocol: as §1, §2

Setaria faberi (SETFA) [6] = test: Test Example 1 pre-emergence herbicidal activity; conditions: Setaria faberi, 480 h, rate 250 g/ha, evaluated 20 days later, read-out: Pre-emergence activity SETFA (100=total damage to plant; 0=no damage to plant)
Protocol: as §1, §2

[7] = tested on: Alopecurus myosuroides (ALOMY); test: Test Example 1 post-emergence herbicidal activity; conditions: 360 h, rate 125 g/ha, evaluated 15 days later, read-out: Post-emergence activity ALOMY (100=total damage to plant; 0=no damage to plant)
Protocol: as §1, §2

Avena fatua (AVEFA) [8] = test: Test Example 1 post-emergence herbicidal activity; conditions: 360 h, rate 125 g/ha, evaluated 15 days later, read-out: Post-emergence activity AVEFA (100=total damage to plant; 0=no damage to plant)
Protocol: as §1, §2

[9] = tested on: Digitaria sanguinalis (DIGSA); test: Test Example 1 post-emergence herbicidal activity; conditions: 360 h, rate 125 g/ha, evaluated 15 days later, read-out: Post-emergence activity DIGSA (100=total damage to plant; 0=no damage to plant)
Protocol: as §1, §2

[10] = tested on: Echinochloa crus-galli (ECHCG); test: Test Example 1 post-emergence herbicidal activity; conditions: 360 h, rate 125 g/ha, evaluated 15 days later, read-out: Post-emergence activity ECHCG (100=total damage to plant; 0=no damage to plant)
Protocol: as §1, §2

Lolium perenne (LOLPE) [11] = test: Test Example 1 post-emergence herbicidal activity; conditions: 360 h, rate 125 g/ha, evaluated 15 days later, read-out: Post-emergence activity LOLPE (100=total damage to plant; 0=no damage to plant)
Protocol: as §1, §2

Setaria faberi (SETFA) [12] = test: Test Example 1 post-emergence herbicidal activity; conditions: 360 h, rate 125 g/ha, evaluated 15 days later, read-out: Post-emergence activity SETFA (100=total damage to plant; 0=no damage to plant)
Protocol: as §1, §2

`CCc1cc(C)cc(CC)c1C1=C(O)[C@@H]2[C@@H]3O[C@@H](C[C@H]3c3cccc(C(C)=O)c3)[C@@H]2C1=O` (racemic) [Example T174] showed a pest or weed control at 250 g/ha [1] of 30%, a pest or weed control at 250 g/ha (Avena fatua (AVEFA) [2]) of 30% and a pest or weed control at 250 g/ha [3] of 40%. The pest or weed control at 250 g/ha [4] was 0%, the pest or weed control at 250 g/ha (Lolium perenne (LOLPE) [5]) was 30% and the pest or weed control at 250 g/ha (Setaria faberi (SETFA) [6]) was 0%. It also gave a pest or weed control at 125 g/ha [7] of 70%, a pest or weed control at 125 g/ha (Avena fatua (AVEFA) [8]) of 70% and a pest or weed control at 125 g/ha [9] of 70%. It also gave a pest or weed control at 125 g/ha [10] of 80%, a pest or weed control at 125 g/ha (Lolium perenne (LOLPE) [11]) of 40% and a pest or weed control at 125 g/ha (Setaria faberi (SETFA) [12]) of 50%.

Work on `Cc1cc(C)c(C2=C(O)[C@@H]3[C@@H]4O[C@@H](C[C@H]4c4ccc(C(F)(F)F)cn4)[C@@H]3C2=O)c(C)c1` (racemic) [Example T200] yielded a pest or weed control at 250 g/ha [1] of 0%, a pest or weed control at 250 g/ha (Avena fatua (AVEFA) [2]) of 0% and a pest or weed control at 250 g/ha [3] of 70%. For the same compound, the pest or weed control at 250 g/ha [4] was 90%, the pest or weed control at 250 g/ha (Lolium perenne (LOLPE) [5]) was 70% and the pest or weed control at 250 g/ha (Setaria faberi (SETFA) [6]) was 70%. For the same compound, the pest or weed control at 125 g/ha [7] was 70%, the pest or weed control at 125 g/ha (Avena fatua (AVEFA) [8]) was 80% and the pest or weed control at 125 g/ha [9] was 100%. The pest or weed control at 125 g/ha [10] was 100%, the pest or weed control at 125 g/ha (Lolium perenne (LOLPE) [11]) was 80% and the pest or weed control at 125 g/ha (Setaria faberi (SETFA) [12]) was 100%.

`CC[C@@H]1C[C@@H]2O[C@H]1[C@H]1C(O)=C(c3c(C)cc(C)cc3C)C(=O)[C@H]12` [Example T106] showed a pest or weed control at 250 g/ha [1] of 90%, a pest or weed control at 250 g/ha (Avena fatua (AVEFA) [2]) of 90% and a pest or weed control at 250 g/ha [3] of 100%. The pest or weed control at 250 g/ha [4] was 100%, the pest or weed control at 250 g/ha (Lolium perenne (LOLPE) [5]) was 100% and the pest or weed control at 250 g/ha (Setaria faberi (SETFA) [6]) was 100%. The pest or weed control at 125 g/ha [7] was 90%, the pest or weed control at 125 g/ha (Avena fatua (AVEFA) [8]) was 80% and the pest or weed control at 125 g/ha [9] was 80%. The pest or weed control at 125 g/ha [10] was 100%, the pest or weed control at 125 g/ha (Lolium perenne (LOLPE) [11]) was 80% and the pest or weed control at 125 g/ha (Setaria faberi (SETFA) [12]) was 90%.

Compound `CCc1cc(C)cc(CC)c1C1=C(O)[C@@H]2[C@@H]3O[C@@H](C[C@H]3c3ccc(C)cc3Cl)[C@@H]2C1=O` [Example T143] has a pest or weed control at 250 g/ha [1] of 50%, a pest or weed control at 250 g/ha (Avena fatua (AVEFA) [2]) of 20% and a pest or weed control at 250 g/ha [3] of 80%. It also gave a pest or weed control at 250 g/ha [4] of 10%, a pest or weed control at 250 g/ha (Lolium perenne (LOLPE) [5]) of 70% and a pest or weed control at 250 g/ha (Setaria faberi (SETFA) [6]) of 70%. For the same compound, the pest or weed control at 125 g/ha [7] was 40%, the pest or weed control at 125 g/ha (Avena fatua (AVEFA) [8]) was 60% and the pest or weed control at 125 g/ha [9] was 60%. The pest or weed control at 125 g/ha [10] was 70%, the pest or weed control at 125 g/ha (Lolium perenne (LOLPE) [11]) was 30% and the pest or weed control at 125 g/ha (Setaria faberi (SETFA) [12]) was 40%.

Work on `Cc1cc(C)c(C2=C(O)[C@@H]3[C@@H]4O[C@@H](C[C@H]4c4ccccc4)[C@@H]3C2=O)c(C)c1` [Example T56] yielded a pest or weed control at 250 g/ha [1] of 100%, a pest or weed control at 250 g/ha (Avena fatua (AVEFA) [2]) of 60% and a pest or weed control at 250 g/ha [3] of 70%. For the same compound, the pest or weed control at 250 g/ha [4] was 100%, the pest or weed control at 250 g/ha (Lolium perenne (LOLPE) [5]) was 100% and the pest or weed control at 250 g/ha (Setaria faberi (SETFA) [6]) was 70%. The pest or weed control at 125 g/ha [7] was 100%, the pest or weed control at 125 g/ha (Avena fatua (AVEFA) [8]) was 50% and the pest or weed control at 125 g/ha [9] was 70%. The pest or weed control at 125 g/ha [10] was 100%, the pest or weed control at 125 g/ha (Lolium perenne (LOLPE) [11]) was 80% and the pest or weed control at 125 g/ha (Setaria faberi (SETFA) [12]) was 60%.

With `CCc1cc(C)cc(CC)c1C1=C(O)[C@@H]2[C@@H]3O[C@@H](C[C@H]3c3ccc(C)c(F)c3)[C@@H]2C1=O` [Example T146] the pest or weed control at 250 g/ha [1] was 70%, the pest or weed control at 250 g/ha (Avena fatua (AVEFA) [2]) was 60% and the pest or weed control at 250 g/ha [3] was 80%. For the same compound, the pest or weed control at 250 g/ha [4] was 80%, the pest or weed control at 250 g/ha (Lolium perenne (LOLPE) [5]) was 90% and the pest or weed control at 250 g/ha (Setaria faberi (SETFA) [6]) was 80%. It also gave a pest or weed control at 125 g/ha [7] of 80%, a pest or weed control at 125 g/ha (Avena fatua (AVEFA) [8]) of 80% and a pest or weed control at 125 g/ha [9] of 70%. The pest or weed control at 125 g/ha [10] was 100%, the pest or weed control at 125 g/ha (Lolium perenne (LOLPE) [11]) was 90% and the pest or weed control at 125 g/ha (Setaria faberi (SETFA) [12]) was 70%.
